In ChEMBL document CHEMBL1156230, “Identification of phenylsulfone-substituted quinoxaline (WYE-672) as a tissue selective liver X-receptor (LXR) agonist” (J Med Chem, 2010):
Active and inactive are the calls of the source. The calls are words filed in the database; no cut-off is given here.

Key:
[1] = target: T1, Oxysterols receptor LXR-alpha (Homo sapiens, UniProt Q13133); experiment: Displacement of [3H]T0901317 from human LXRalpha ligand binding domain
T1 sequence (Q13133 whole entry): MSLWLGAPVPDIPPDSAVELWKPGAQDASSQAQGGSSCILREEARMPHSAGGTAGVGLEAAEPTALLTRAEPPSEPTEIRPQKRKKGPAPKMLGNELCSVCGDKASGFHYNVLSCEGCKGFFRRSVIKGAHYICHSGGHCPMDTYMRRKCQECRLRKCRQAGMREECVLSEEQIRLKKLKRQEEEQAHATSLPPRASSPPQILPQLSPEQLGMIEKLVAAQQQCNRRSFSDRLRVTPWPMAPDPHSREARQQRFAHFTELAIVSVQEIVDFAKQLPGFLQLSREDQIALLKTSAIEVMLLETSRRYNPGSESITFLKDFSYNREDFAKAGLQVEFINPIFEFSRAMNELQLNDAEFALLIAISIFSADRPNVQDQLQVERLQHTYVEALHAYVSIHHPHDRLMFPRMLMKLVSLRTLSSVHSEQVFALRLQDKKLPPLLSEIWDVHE

THP-1 = experiment: Induction of [3H]cholesterol efflux in human THP1 cells assessed as lipid accumulation relative to T0901317; type: functional
[2] = target: T2, Peroxisome proliferator-activated receptor gamma (Homo sapiens) (UniProt P37231); experiment: Binding affinity to PPARgamma
T2 sequence (whole entry): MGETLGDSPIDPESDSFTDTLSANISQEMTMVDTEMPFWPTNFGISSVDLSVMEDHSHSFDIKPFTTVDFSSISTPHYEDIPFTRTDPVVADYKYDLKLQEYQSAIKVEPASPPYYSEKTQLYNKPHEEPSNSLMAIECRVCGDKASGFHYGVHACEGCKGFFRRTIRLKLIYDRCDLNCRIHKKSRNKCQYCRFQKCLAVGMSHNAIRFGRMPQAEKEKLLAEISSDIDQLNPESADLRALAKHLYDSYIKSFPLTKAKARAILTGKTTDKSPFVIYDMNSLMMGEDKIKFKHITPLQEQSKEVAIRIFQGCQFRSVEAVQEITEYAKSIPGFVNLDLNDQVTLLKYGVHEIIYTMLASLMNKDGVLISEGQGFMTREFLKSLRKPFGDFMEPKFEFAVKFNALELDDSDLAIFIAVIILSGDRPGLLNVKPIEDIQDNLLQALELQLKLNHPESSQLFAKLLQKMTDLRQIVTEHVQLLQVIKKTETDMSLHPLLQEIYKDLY

HepG2 = experiment: Agonist activity at LXR in human HepG2 cells assessed as lipid accumulation relative to T0901317
Mus musculus = experiment: Antiatherosclerotic activity against high fat/high cholesterol fed LDLR-deficient mouse assessed as ldlr gene regulation at 0.6 mg/kg administered with diet for 7 days by Experion chip analysis; type: functional, organism-based; parameters: dose 0.6 mg/kg

IC50 [1]	Activity [2]	Compound	Efficacy (THP-1)	Efficacy (HepG2)	Activity (Mus musculus)
> 1000 nM	inactive	Cc1nc2c(C(F)(F)F)cccc2nc1-c1ccc(-c2cccc(S(C)(=O)=O)c2)cc1	60%	7%	
		O=C(O)Cc1cccc(OCCCN(Cc2cccc(C(F)(F)F)c2Cl)CC(c2ccccc2)c2ccccc2)c1			Active
